This is an account of results in patent publication US6369225B1, “Compounds having activity as inhibitors of cytochrome P450RAI” (Allergan Sales, Inc., priority 2000, dated 2002).

The target of data set [1] is T1, P450RAI-1 (Homo sapiens, UniProt O43174).
T1 construct: expressed in transfected cells; host or cells: HeLa cells, stably transfected, hygromycin selection
T1 sequence (O43174 1-497): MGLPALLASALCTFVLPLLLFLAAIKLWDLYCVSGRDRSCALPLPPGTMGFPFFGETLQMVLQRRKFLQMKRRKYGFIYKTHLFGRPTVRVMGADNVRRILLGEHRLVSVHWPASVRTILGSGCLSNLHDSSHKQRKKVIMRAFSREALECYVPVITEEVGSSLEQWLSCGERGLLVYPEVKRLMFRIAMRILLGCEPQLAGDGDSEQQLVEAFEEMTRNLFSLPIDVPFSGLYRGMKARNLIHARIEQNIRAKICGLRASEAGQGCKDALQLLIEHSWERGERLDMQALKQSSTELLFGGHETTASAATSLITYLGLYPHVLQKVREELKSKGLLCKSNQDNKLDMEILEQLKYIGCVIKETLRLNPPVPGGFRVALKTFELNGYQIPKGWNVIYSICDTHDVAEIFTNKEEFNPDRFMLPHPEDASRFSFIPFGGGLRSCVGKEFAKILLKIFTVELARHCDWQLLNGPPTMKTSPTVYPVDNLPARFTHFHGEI
Briefly: P450RAI-1 cell-based inhibitor assay. The conditions noted are these: P450RAI-1 stably transfected HeLa cells, [3H]-RA metabolism, 3 hours at 37° C.; read-out: P450RAI INHIBITION DATA INTACT HELA IC50. Put shortly: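 HeLa cells stably expressing the enzyme (5×10^5/well) incubated 3 h at 37 °C with 0.05 μCi [3H]-all-trans-RA and compound at 10, 1 or 0.1 μM in triplicate. Water-soluble radioactive metabolites counted by scintillation; IC50 derived manually from log-transformed data.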

In data set [2] the target is T2, RARα (Homo sapiens, UniProt P10276).
T2 sequence (P10276 183-462 limits assumed): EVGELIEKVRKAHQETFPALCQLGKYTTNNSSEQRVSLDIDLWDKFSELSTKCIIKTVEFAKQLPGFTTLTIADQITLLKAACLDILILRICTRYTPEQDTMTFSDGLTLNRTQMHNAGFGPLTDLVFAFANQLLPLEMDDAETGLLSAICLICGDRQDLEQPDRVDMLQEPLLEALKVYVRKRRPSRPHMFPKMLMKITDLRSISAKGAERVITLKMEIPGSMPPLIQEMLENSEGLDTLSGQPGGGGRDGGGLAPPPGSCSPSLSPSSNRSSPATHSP
Briefly: chimeric receptor transactivation assay, RARα. The class given is cell-based. As to conditions: EC50 line of EC50/(EFFICACY)/Kd, read-out: RAR EC50 α. The text has this: (§1) Assays described below measure the ability of a compound to bind to, and/or activate various retinoid receptor subtypes. When in these assays a compound binds to a given receptor subtype and activates the transcription of a reporter gene through that subtype, then the compound is considered an agonist of that receptor subtype. […] In the below described assays the ability of the compounds to bind to RARα, RARβ, RARγ, RXRα, RXRβ and RXRγ receptors, and the ability or inability of the compounds to activate transcription of a reporter gene through these receptor subtypes can be tested.
(§2) As far as specific assays are concerned, a chimeric receptor transactivation assay which tests for agonist-like activity in the RARα, RARβ, AND RARγ, receptor subtypes, and which is based on work published by Feigner P. L. and Holm M. (1989) Focus, 112 is described in detail in U.S. Pat. No. 5,455,265. The specification of U.S. Pat. No. 5,455,265 is hereby expressly incorporated by reference. The numeric results obtained with several preferred compounds of this invention in this assay are shown below in Table 1.

The target of data set [3] is T3, RARγ (Homo sapiens, UniProt P13631).
T3 sequence (P13631 185-419 limits assumed): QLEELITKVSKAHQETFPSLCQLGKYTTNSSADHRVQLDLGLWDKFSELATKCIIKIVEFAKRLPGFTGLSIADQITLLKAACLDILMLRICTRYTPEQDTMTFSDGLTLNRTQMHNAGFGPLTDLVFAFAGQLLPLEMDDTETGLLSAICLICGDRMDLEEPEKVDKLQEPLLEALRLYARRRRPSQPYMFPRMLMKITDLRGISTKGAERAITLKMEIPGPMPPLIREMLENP
The data set is described as follows: chimeric receptor transactivation assay, RARγ. The class given is cell-based. The conditions noted are these: EC50 line of EC50/(EFFICACY)/Kd, read-out: RAR EC50 γ.
Description: as §1, §2

For data set [4], the target named is T4, RARβ (Homo sapiens, UniProt P10826).
T4 sequence (P10826 183-417 limits assumed): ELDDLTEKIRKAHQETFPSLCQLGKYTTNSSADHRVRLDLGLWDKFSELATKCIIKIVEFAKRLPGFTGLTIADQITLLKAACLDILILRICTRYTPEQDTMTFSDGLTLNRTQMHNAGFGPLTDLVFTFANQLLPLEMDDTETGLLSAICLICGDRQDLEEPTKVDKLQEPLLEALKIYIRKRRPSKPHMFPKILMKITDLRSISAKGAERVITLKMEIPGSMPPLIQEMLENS
The data set is described as follows: chimeric receptor transactivation assay, RARβ. The class given is cell-based. The conditions noted are these: EC50 line of EC50/(EFFICACY)/Kd, read-out: RAR EC50 β.
Description: as §1, §2

The target in data set [5] is T5, RARγ (Homo sapiens, UniProt P13631).
T5 sequence (P13631 1-454): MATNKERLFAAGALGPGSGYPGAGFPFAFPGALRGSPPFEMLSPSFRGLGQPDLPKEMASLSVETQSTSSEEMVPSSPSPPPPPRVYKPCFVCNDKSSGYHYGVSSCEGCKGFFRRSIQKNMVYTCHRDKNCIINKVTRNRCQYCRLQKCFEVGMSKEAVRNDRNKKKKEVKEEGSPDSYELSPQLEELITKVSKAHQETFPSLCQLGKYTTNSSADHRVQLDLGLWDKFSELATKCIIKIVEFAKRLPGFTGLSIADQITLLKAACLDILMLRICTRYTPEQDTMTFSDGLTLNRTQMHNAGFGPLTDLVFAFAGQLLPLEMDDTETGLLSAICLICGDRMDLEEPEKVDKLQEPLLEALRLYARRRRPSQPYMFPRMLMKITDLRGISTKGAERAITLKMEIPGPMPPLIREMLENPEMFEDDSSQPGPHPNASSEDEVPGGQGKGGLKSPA
Briefly: ligand binding assay, RARγ. The conditions noted are these: Kd line of EC50/(EFFICACY)/Kd, read-out: RAR Kd γ.
Description: as §1
(§3) A holoreceptor transactivation assay and a ligand binding assay which measure the antagonist/agonist like activity of the compounds of the invention, or their ability to bind to the several retinoid receptor subtypes, respectively, are described in published PCT Application No. WO WO93/11755 (particularly on pages 30-33 and 37-41) published on Jun. 24, 1993, the specification of which is also incorporated herein by reference. A detailed experimental procedure for holoreceptor transactivations has been described by Heyman et al. Cell 68, 397-406, (1992); Allegretto et al. J. Biol. Chem. 268, 26625-26633, and Mangelsdorf et al. The Retinoids: Biology, Chemistry and Medicine, pp 319-349, Raven Press Ltd., New York, which are expressly incorporated herein by reference. The results obtained in this assay are expressed in EC50 numbers, as they are also in the chimeric receptor transactivation assay. The results of ligand binding assay are expressed in Kd numbers. (See Cheng et al. Biochemical Pharmacology Vol. 22 pp 3099-3108, expressly incorporated herein by reference.)
(§4) The results if the ligand binding assay for several preferred compounds of the invention are included in Table 1.

The target in data set [6] is T6, RARα (Homo sapiens, UniProt P10276).
T6 sequence (P10276 1-462): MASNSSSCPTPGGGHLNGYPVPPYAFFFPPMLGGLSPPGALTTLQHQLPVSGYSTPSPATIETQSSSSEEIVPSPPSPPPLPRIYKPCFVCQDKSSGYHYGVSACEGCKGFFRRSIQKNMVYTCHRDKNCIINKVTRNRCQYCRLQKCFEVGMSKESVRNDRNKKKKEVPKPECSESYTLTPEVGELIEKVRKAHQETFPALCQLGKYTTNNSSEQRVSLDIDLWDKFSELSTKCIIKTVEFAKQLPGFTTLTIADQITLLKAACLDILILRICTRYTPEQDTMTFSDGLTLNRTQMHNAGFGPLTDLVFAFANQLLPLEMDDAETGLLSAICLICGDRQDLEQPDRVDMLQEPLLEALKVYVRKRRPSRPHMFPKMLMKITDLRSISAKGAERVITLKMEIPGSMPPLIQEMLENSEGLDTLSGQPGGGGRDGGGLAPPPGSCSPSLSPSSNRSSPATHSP
The data set is described as follows: ligand binding assay, RARα. The conditions noted are these: Kd line of EC50/(EFFICACY)/Kd, read-out: RAR Kd α.
Description: as §1, §3, §4

For data set [7], the target named is T7, RARβ (Homo sapiens, UniProt P10826).
T7 sequence (P10826 1-455): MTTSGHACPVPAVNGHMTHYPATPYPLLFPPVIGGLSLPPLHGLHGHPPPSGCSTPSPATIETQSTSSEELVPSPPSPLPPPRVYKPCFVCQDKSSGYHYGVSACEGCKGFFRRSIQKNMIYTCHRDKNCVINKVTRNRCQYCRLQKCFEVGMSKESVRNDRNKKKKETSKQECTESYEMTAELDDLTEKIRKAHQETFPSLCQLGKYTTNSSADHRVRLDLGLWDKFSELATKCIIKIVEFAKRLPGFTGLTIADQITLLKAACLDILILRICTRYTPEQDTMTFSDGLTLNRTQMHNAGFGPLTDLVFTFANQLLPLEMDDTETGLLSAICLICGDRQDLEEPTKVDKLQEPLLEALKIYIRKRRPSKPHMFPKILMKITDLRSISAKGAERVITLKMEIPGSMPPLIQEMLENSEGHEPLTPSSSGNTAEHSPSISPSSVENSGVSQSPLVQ
The data set is described as follows: ligand binding assay, RARβ. The conditions noted are these: Kd line of EC50/(EFFICACY)/Kd, read-out: RAR Kd β.
Description: as §1
as §3, with “A detailed experimental procedure for holoreceptor transactivations has been described by Heyman et al. Cell 68, 397-406, (1992); Allegretto et al. J. Biol. Chem. 268, 26625-26633, and Mangelsdorf et al. The Retinoids: Biology, Chemistry and Medicine, pp 319-349, Raven Press Ltd., New York, which are expressly incorporated herein by reference.” left out

Data set [8] relates to skin of hairless mice. The data set is described as follows: topical skin irritation test in hairless mice. The class given is in vivo, mouse. As to conditions: topical in acetone, once daily days 1 through 5, mean ±SD, range 0-21. The text has this: Mice were housed individually throughout the dosing period.
Doses are disclosed as nmol/25 g.
The grading scale used is as follows:
Values can range from 0-9.
Values can range from 0-8.

pEC50, pIC50, pKd: −log10 of the molar value.

As for `CC1(C)CCC(=O)c2ccc(C#Cc3ccc(C(=O)O)c(F)c3)cc21` [Compound 10, 2-Fluoro-4-(8,8-dimethyl-5-oxo-5,6,7,8-tetrahydro-naphthalen-2yl-ethynyl)benzoic Acid], the negative logarithm of the IC50 (pIC50) (commonly the IC50 on a negative log10 scale, so that one unit is a factor of ten) in data set [1] was 6.15. The values for the negative-log EC50 (pEC50) in data set [2], in data set [3] and in data set [4] were 7.24, 8.22 and 9.52, respectively.

For the compound `CN(C1CC1)C1CCC(C)(C)c2cc(C#Cc3ccc(C(=O)O)c(F)c3)ccc21` (stereo not drawn) [Compound 13, 4-[5-(Cyclopropyl-methyl-amino)-8,8-dimethyl-5,6,7,8-tetrahydro-naphthalene-2-yl-ethynyl]-2-fluoro Benzoic Acid], in data set [1], the negative logarithm of the IC50 (pIC50) was 5.51. Also, the pEC50 (commonly the negative decadic logarithm of the EC50, by convention in mol/L) in data set [3] is 6.94; in data set [4], 8.49.

On to `CC1(C)CC(C)(C)c2cc(C#Cc3ccc(CC(=O)O)cc3)cc(C3CC3)c2O1` [Compound 36, [4-(8-Cyclopropyl-2,2,4,4-tetramethyl-chroman-6-yl-ethynyl)phenyl]acetic Acid], for which the pKd (as a rule, −log10 of the Kd, conventionally taken in molar units) is 6.31 in data set [5], 4.89 in data set [6] and 5.31 in data set [7]. For the same compound, in data set [1], the negative logarithm of the IC50 (pIC50) was 7.48. The figures for the “Cutaneous Toxicity Score (Blackjack Score)” value in data set [8] (100 nmole (nmol/25 g)) and in data set [8] (1000 nmole (nmol/25 g)) were 1 ± 1 and 11 ± 0, respectively.

In the case of `CC1(C)CC(C)(C)c2cc(C#Cc3ccc(CC(=O)O)c(F)c3)cc(C3CC3)c2O1` [Compound 38, [4-(8-Cyclopropyl-2,2,4,4-tetramethyl-chroman-6-yl-ethynyl)-2-fluorophenyl]acetic Acid], the negative-log Kd (pKd) in data set [5] is 5.54; in data set [7], 5.27. For the same compound, the negative-log IC50 (pIC50) in data set [1] was 7.60. Also, the results for the “Cutaneous Toxicity Score (Blackjack Score)” value in data set [8] (100 nmole (nmol/25 g)) and in data set [8] (1000 nmole (nmol/25 g)) were 1 ± 1 and 10 ± 1, respectively.
